This is an account of results in patent US20030176390A1, “Methods of treating insulin resistance syndrome and diabetes” (priority 2001, published 2003).

Each structure is given as a SMILES string.

One data set deals with rat adipocytes. Put plainly: In vitro lipolysis assay (antilipolytic activity in rat adipocytes). The data set is classed as cell-based. As to conditions: Rattus norvegicus, Adipocyte, 1 h; norepinephrine-stimulated lipolysis, glycerol assayed, 60 min; read-out: Lipo ec50. On the procedure:
Determination of Antilipolytic Activity in Rat Adipocytes
Isolation of Adipocytes from Epididymal Fat Pads
Adipose tissue is removed from anesthetized rats and rinsed twice in incubation medium (2.09 g sodium bicarbonate and 0.04 g EDTA, disodium salt, in 1 L Krebs buffer). Each rat (300-350 g) yields approximately 4 mL of adipose tissue. The adipose tissue (35 mL) is cut into small pieces with scissors and washed with incubation medium (50 mL). The mixture is poured into the barrel of a 50 mL syringe to which is attached a short piece of clamped tubing instead of a needle. The aqueous phase is allowed to drain. A second wash with incubation medium is passed through the syringe. The tissue is added to 50 mL of collagenase solution (collagenase (90 mg), bovine serum albumin (BSA) (500 mg), and 0.1 M calcium chloride solution (1 mL), in incubation medium (50 mL)) in a 1 L bottle. The mixture is shaken in an environmental at 37° C. for about 60 minutes under an atmosphere of 95% oxygen/5% carbon dioxide to effect digestion of the tissue. The dispersed cells are poured through 2 layers of cheese cloth into a 100 mL plastic beaker. The undigested clumps in the cloth are rinsed once with incubation medium (20 mL). The cells in the beaker are centrifuged in 2 plastic tubes for 30 seconds at room temperature at 300 rpm. The aqueous phase is aspirated from beneath the loosely packed layer of floating fat cells and discarded. The adipocytes are gently poured into a 250 mL plastic beaker containing 100 mL of rinse solution (1 g BSA per 100 mL incubation medium). After gentle stirring the centrifugation step is repeated. Another wash with rinse solution follows. The cells are pooled and their volume is estimated with a graduated cylinder. The adipocytes are diluted in twice their volume of assay buffer (incubation medium (120 mL), BSA (1.2 g), pyruvic acid (13 mg)).
The assay is performed in 20 mL plastic scintillation vials and the total assay volume is 4.2 mL. Assay buffer (2.5 mL), diluted adipocytes (1.5 mL), and a solution of the compound to be tested (12.3 μL) adenosine agonist (12.3 μl; varying concentration) is incubated in the environmental shaker for 15 minutes, then the reaction is started with norepinephrine solution (41.2 μL) (10 nM, in a carrier solution containing water (100 mL), BSA (4 mg), and 0.1 M EDTA (20 μL))and adenosine deaminase (1 μg/mL, 41.2 μl). After sixty minutes in the shaker the reaction is terminated by putting the vials on ice. […] The hard lipid layer is removed by aspiration and the aqueous layer is assayed for glycerol (400 μl of sample). The positive control is done in the absence of any adenosine agonist, substituting water in place of the solution to be tested.

Data set [1] can be described thus: Plasma free fatty acids in anaesthetized starved male Wistar rats. The data set is classed as in vivo. Set-up: unit not given here. The protocol:
Measurement of Plasma Lipdis (Free Fatty Acids, Triglycerides, Cholesterol) in Anaesthetized Rats.
Plasma lipid levels were assayed in anaesthetized rats. Briefly, rats were anaesthetized with an intraperitoneal injection of pentobarbital sodium (60 mg/kg), tracheotomized, and one jugular vein per rat was cannulated for intravenous administration (bolus injection or infusion). Anesthesia was mantained for up to 7 hours by subcutaneous infusion of pentobarbital sodium (adjusted to the anesthetic depth of the individual animal; about 24 mg/kg/h). Body temperature was monitored with a rectal probe thermometer, and temperature was maintained at 37° C. by means of a heated surgical plate. The rats were allowed to stabilize their blood levels after surgery for up to 2 hours, after which the test compound was injected intraperitoneally. Blood samples for glucose analysis (10 μl) were obtained from the tip of the tail every 15 minutes. For analysis of plasma lipids blood samples (0.3 ml) were obtained from the jugular vein either every 10 to 15 minutes for up to 2 hours, or every hour for up to 5 hours after compound administration. Standard enzymatic procedures were used to determine blood glucose (Bergmeyer, 1974).

Data set [2] can be described thus: Insulin tolerance test (3 U/kg s.c.) in insulin resistant Zucker Fatty rats after 3 weeks pretreatment. The data set is classed as in vivo. Set-up: unit not given here. On the procedure:
Measurement of Insulin Sensitivity in Conscious Rats.
Insulin resistant Zucker Fatty rats or Zucker Diabetic Fatty (ZDF) rats were treated for up to 3 weeks with the test compound orally once daily. Plasma parameters were obtained by retroorbital bleeding during inhalation anaesthesia on respective study days. […] In the case of improvement of insulin sensitivity by the test compound the blood glucose reduction was much more pronounced and prolonged compared to that of the control group.

Another data set relates to A2 receptor. To be noted: relative to NECA; cited from earlier work.
For another data set, the system named is A1 and A2 receptors. As to conditions: selectivity; cited from earlier work.

Molecule `COC[C@H]1C[C@@H](n2cnc3c(N[C@H]4CCN(c5ccc(C(F)(F)F)cn5)C4)ncnc32)[C@H](O)[C@@H]1O` [Example 3, (1R,2S,3R,5R)-5-methoxymethyl-3-[6-[1-(5-trifluoromethylpyridin2-yl)pyrrolidin-3(S)-ylamino]-purin-9-yl]cyclopentane-1,2-diol] came in with a melting point of 166 to 168 °C. Also, the EC50 with rat adipocytes is 5.62 nM. In data set [1] (10 mg/kg i.p., 10 minutes), the “plasma free fatty acids, mean” value stood at 0.42. Further, the “plasma free fatty acids, mean” value in data set [1] (10 mg/kg i.p., 20 minutes) came out at 0.26. The “plasma free fatty acids, mean” value in data set [1] (10 mg/kg i.p., 30 minutes) came to 0.19. The “plasma free fatty acids, mean” value in data set [1] (10 mg/kg i.p., 40 minutes) worked out at 0.19. The “plasma free fatty acids, mean” value in data set [1] (10 mg/kg i.p., 60 minutes) was 0.13. Further, the “plasma free fatty acids, mean” value in data set [1] (10 mg/kg i.p., −60 minutes) turned out to be 0.61. Also, the “plasma free fatty acids, mean” value in data set [1] (30 mg/kg i.p., 10 minutes) is 0.24. In data set [1] (30 mg/kg i.p., 20 minutes), the “plasma free fatty acids, mean” value was determined as 0.14. Besides, in data set [1] (30 mg/kg i.p., 30 minutes), the “plasma free fatty acids, mean” value is 0.13. For the same molecule, the “plasma free fatty acids, mean” value in data set [1] (30 mg/kg i.p., 40 minutes) worked out at 0.10. Moreover, the “plasma free fatty acids, mean” value in data set [1] (30 mg/kg i.p., 60 minutes) worked out at 0.09. The “plasma free fatty acids, mean” value in data set [1] (30 mg/kg i.p., −60 minutes) turned out to be 0.52. Also, the “Insulin tolerance test, blood glucose, mean” value (“Insulin tolerance test” below) in data set [2] (1 mg/kg p.o. for 3 weeks (first group), 0 minutes after insulin) was found to be 4.60. Moreover, the “Insulin tolerance test” value in data set [2] (1 mg/kg p.o. for 3 weeks (first group), 60 minutes after insulin) came to 1.96. For the same molecule, the “Insulin tolerance test” value in data set [2] (1 mg/kg p.o. for 3 weeks (first group), 120 minutes after insulin) came out at 1.59. Further, the “Insulin tolerance test” value in data set [2] (1 mg/kg p.o. for 3 weeks (first group), 180 minutes after insulin) came out at 1.72. The “Insulin tolerance test” value in data set [2] (1 mg/kg p.o. for 3 weeks (first group), 240 minutes after insulin) was determined as 3.02. Moreover, in data set [2] (1 mg/kg p.o. for 3 weeks (first group), 300 minutes after insulin), the “Insulin tolerance test” value was determined as 5.13. Further, the “Insulin tolerance test” value in data set [2] (1 mg/kg p.o. for 3 weeks (first group), 360 minutes after insulin) is recorded as 4.98. For the same molecule, in data set [2] (1 mg/kg p.o. for 3 weeks (first group), 420 minutes after insulin), the “Insulin tolerance test” value is on record as 4.04. The “Insulin tolerance test” value in data set [2] (second group, (1 mg/kg p.o.), 3 weeks, 0 minutes after insulin) came out at 5.17. Besides, the “Insulin tolerance test” value in data set [2] (second group, (1 mg/kg p.o.), 3 weeks, 60 minutes after insulin) was 1.99. Also, the “Insulin tolerance test” value in data set [2] (second group, (1 mg/kg p.o.), 3 weeks, 120 minutes after insulin) is recorded as 1.57. Besides, the “Insulin tolerance test” value in data set [2] (second group, (1 mg/kg p.o.), 3 weeks, 180 minutes after insulin) turned out to be 1.44. For the same molecule, in data set [2] (second group, (1 mg/kg p.o.), 3 weeks, 240 minutes after insulin), the “Insulin tolerance test” value was determined as 2.54. Besides, the “Insulin tolerance test” value in data set [2] (second group, (1 mg/kg p.o.), 3 weeks, 300 minutes after insulin) is given as 4.35. Further, the “Insulin tolerance test” value in data set [2] (second group, (1 mg/kg p.o.), 3 weeks, 360 minutes after insulin) is on record as 5.63. The “Insulin tolerance test” value in data set [2] (second group, (1 mg/kg p.o.), 3 weeks, 420 minutes after insulin) was found to be 6.09.

`Nc1nc(Nc2ccccc2)nc2c1ncn2[C@@H]1O[C@H](CO)[C@@H](O)[C@H]1O` [CV-1808]: the “fold less potent than NECA in its affinity for the A2 receptor” value in the data set on A2 receptor was 10 fold. The A2/A1 ratio in the data set with A1 and A2 receptors was 0.19.

In the case of `OC[C@H]1O[C@@H](n2cnc3c(NC4CCCC4)ncnc32)[C@H](O)[C@@H]1O` [CPA, Cyclopentyladenosine], in the data set with A1 and A2 receptors, the A2/A1 ratio is given as 780.

The EC50 is the concentration giving half of the maximal effect. Usually melting point stands for the temperature of the solid-liquid transition.
